Measured values: patent US10478492B2, “Modifications of therapeutic agents for enhanced delivery to target sites” (Partikula LLC, priority 2016, dated 2019)
Where two headings read alike, the source gives them in different places.

Legend:
[1] = target: monocarboxylate transporters (MCT); conditions: competitive inhibitor of lactate transport in tumors; read-out: Ki as inhibitor of lactate transport; cited from earlier work
[2] = Stability in cell culture media containing 10% FBS by HPLC; format: in vitro ADME
Description: Stability of ADCA in cell culture media containing 10% FBS was examined by looking at the HPLC chromatograms and area under the peaks. For the study, […] solution of ADCA was prepared by mixing 10 μL of 100 mM DMSO stock solution with 1.99 mL of cell media. Turbidity was observed after mixing, however no precipitate was observed. The samples were then stored at 37° C., 150 μL aliquots were analyzed by HPLC (the sample was mixed before taking an aliquot, however no visible precipitate was observed even before mixing). Alanyl-DCA was detected at 205 nm with a retention time of 9.7 min on HPLC.
Stability of Mito-ADCA in cell culture media containing 10% FBS was monitored by examining the HPLC chromatograms and area under the peaks. Scheme below expected degradation products:
For this study, 500 μM solution of Mito-ADCA (MAD) was prepared by mixing 10 μL of 100 mM DMSO stock solution with 1.99 mL of cell culture media (RPMI 1640 medium, supplemented with 10% FBS, 1% Pen/strep). Turbidity was observed after mixing, however no precipitate was observed. The samples were then stored at 37° C., 150 μL aliquots were analyzed by HPLC (the sample was mixed before taking an aliquot, and no visible precipitate was observed even before mixing).
Using HPLC, MitoADCA (MAD), loss of one alanyl-DCA (MAD-ADCA), loss of three alanyl-DCA (i.e., TPP-Tris-OH) and the alanyl-DCA (ADCA) were tracked. MAD was detected and monitored at 268 nm with retention time of 18.08 min, Mito-A-DCA missing 1 alanyl DCA at 268 nm with retention time of 17.13 min, total amount of MAD and Mito-A-DCA missing 1 alanyl DCA at 268 nm, TPP-Tris-OH at 268 nm with retention time of 14.6 min, and alanyl DCA at 205 nm with retention time of 9.5 min. The MAD half-life in cell media at 500 μM was measured as ˜20 h. TPP-Tris-OH starts appearing in HPLC only after 10 h in media.

[3] = tested on: PDH activity in primary rat hepatocytes; conditions: read-out: EC50 for increase of PDH activity; cited from earlier work
[4] = target: PDHK2 (Homo sapiens, UniProt Q15119); conditions: cited from earlier work
[5] = tested on: HCT116 cells; experiment: Cytotoxicity in HCT116 cells; format: cell-based
Description: (§1) Next the cytotoxicity ability of PDCA and PDCA-NPs were studied in A549 and HCT16 cells to evaluate the ability of these new formulations with respect to NaDCA.
(§2) Next the cytotoxicity ability of PalmMetformin and NPs were studied in A549 and HCT16 cells to evaluate the ability of these new formulations with respect to Meformin.

[6] = tested on: A549 cells; experiment: Cytotoxicity in A549 cells; format: cell-based
Description: as §1, §2

[7] = Stability in water by HPLC; format: physicochemical; conditions: for stability in water: 2 days
Description: (§3) In a further study, Mito-ADCA stability testing was carried out in rat serum. 0.5 mg/mL solutions 18% rat serum were prepared and analyzed by HPLC. Mito-ADCA was detected at 268 nm with a retention time of 18.08 min over time of 4500 min in 18% rat serum. […] After 2 d a peak of TPP-Tris-OH was observed. The amount of TPP-Tris-OH corresponded to 76% of the original.
(§4) Stability of TPP-bis-ADCA in rat serum and water was carried out using 500 μg/mL solution in 18% rat serum. The solution was analyzed by HPLC for two days.
(§5) Hydrolytic stability of TPP-ibDCA in serum, and in water was studied. A 500 μg/mL solution of TPP-ib-DCA in water, and in 18% rat serum was analyzed by HPLC using the method for Mito-ADCA/DCA detection described above. […] In water, hydrolysis of TPP-ib-DCA stops halfway likely due to the acidification of the solution.

[8] = Stability in 18% rat serum by HPLC; format: in vitro ADME
Description: as §3, §4, §5

[9] = A549 cells, 24 + 48 h, read-out: IC50 (24 + 48 h)
[10] = A549 cells, 72 h, read-out: IC50 (72 h)
[11] = 500 μg/mL in 18% rat serum, two days

In the case of `N#CC(=Cc1ccc(O)cc1)C(=O)O` [ACCA, α-cyano-4-hydroxy cinnamic acid], the Ki [1] is given as 500 µM.
With `O=C(O)CCNC(=O)C(Cl)Cl` [ADCA, β-alanyl-DCA] the “change in ADCA concentration (total area of absorbance peak)” value ([2]; 1.5 mM, cell culture media with 10% FBS, 37° C., five days) was “virtually no change in ADCA concentration over five days”.
For `CN(C)C(=O)c1ccc(S(=O)(=O)c2ccc(NC(=O)[C@@](C)(O)C(F)(F)F)c(Cl)c2)cc1` [AZD7545, 4-[3-chloro-4-[[(2R)-3,3,3-trifluoro-2-hydroxy-2-methylpropanoyl]amino]phenyl]sulfonyl-N,N-dimethylbenzamide], the EC50 [3] is given as 0.105 µM and the IC50 [4] is given as 0.0064 µM.
In the case of `CN(C)C(=N)N=C(N)N` [Meformin, Metformin, reference compound], the IC50 ([5]; Homo sapiens, HCT-116, 24 + 48 h, Table 4, read-out: IC50 (24 + 48 h)) is reported as > 500 µM, the IC50 ([5]; Homo sapiens, HCT-116, 72 h, Table 4, read-out: IC50 (72 h)) is reported as > 500 µM and the IC50 ([5]; Homo sapiens, HCT-116, read-out: IC50 values) is reported as > 500 µM. The IC50 ([6]; Homo sapiens, A549 cells, 24 + 48 h, Table 4, read-out: IC50 (24 + 48 h)) was > 500 µM, the IC50 ([6]; Homo sapiens, A549 cells, 72 h, Table 4, read-out: IC50 (72 h)) was > 500 µM and the IC50 ([6]; Homo sapiens, A549 cells, read-out: IC50 values) was > 500 µM.
For `O=C(CCCCC[P+](c1ccccc1)(c1ccccc1)c1ccccc1)NC(COC(=O)CCNC(=O)C(Cl)Cl)(COC(=O)CCNC(=O)C(Cl)Cl)COC(=O)CCNC(=O)C(Cl)Cl.[Br-]` [Mito-ADCA, TPP-Tris-β-alanino-DCA], the stability in water [7] was “stable in water for 2 days without signs of decomposition”, the half-life at 500 μM ([2]; cell culture medium with 10% FBS (no cells), 500 μM, RPMI 1640 with 10% FBS, 37° C.) was ~20 h and the “species released by hydrolysis” value ([2]; cell media with 10% FBS) was “Alanyl-DCA is released as a result of hydrolysis instead of DCA”. The half-life at 0.5 mg/mL ([8]; 0.5 mg/mL in 18% rat serum) was ~7 h and the “species released by hydrolysis” value ([8]; 18% rat serum) was “Alanyl-DCA is released as a result of hydrolysis instead of DCA”.
With `O=C([O-])C(Cl)Cl.[Na+]` [NaDCA, reference compound] the IC50 ([5]; 24 + 48 h, read-out: IC50 (24 + 48 h)) was > 20000 µM, the IC50 ([5]; 72 h, read-out: IC50 (72 h)) was > 20000 µM and the IC50 [6, 9] was > 20000 µM. The IC50 [6, 10] was > 20000 µM and the IC50 ([6]; cell line not stated in the sentence (A549 and HCT16 cells studied), read-out: IC50 value) was ≥ 20000 µM.
With `CCCCCCCCCCCCCCCC(=O)NC(COC(=O)CCNC(=O)C(Cl)Cl)(COC(=O)CCNC(=O)C(Cl)Cl)COC(=O)CCNC(=O)C(Cl)Cl` [PADCA, Palm-Tris-β-alanino-DCA] the IC50 ([6]; Homo sapiens, A549 cells, free PADCA, read-out: IC50 value) was ~400 µM.
`CCCCCCCCCCCCCCCC(=O)NC(COC(=O)C(Cl)Cl)(COC(=O)C(Cl)Cl)COC(=O)C(Cl)Cl` [PDCA, Palmitic-Tris-DCA] gave an IC50 [6, 9] of 204 µM, an IC50 [6, 10] of 175 µM and an IC50 ([6]; cell line not stated in the sentence (values match A549 of Table 2), read-out: IC50 value) of ~204 µM.
For `O=C(NCCCCC(NC(=O)C(Cl)Cl)C(=O)NCCCC[P+](c1ccccc1)(c1ccccc1)c1ccccc1)C(Cl)Cl` (stereo not shown) [TPP-bis-ADCA], the stability in water [7] was “stable in both serum and water”, the decomposition in serum ([8]; 500 μg/mL in 18% rat serum, after 2 days) was 2% and the “detection of DCA” value [8, 11] was “no DCA was detected”. For the same molecule, the stability in serum [8, 11] was “stable in both serum and water”.
For `CC(C)(OC(=O)C(Cl)Cl)C(=O)NCCCC[P+](c1ccccc1)(c1ccccc1)c1ccccc1.[Br-]` [TPP-ib-DCA, (4-(2-(2,2-dichloroacetoxy)-2-methylpropanamido)butyl) triphenylphosphonium bromide], the hydrolysis in water ([7]; 500 μg/mL in water) was “stops halfway”, the “appearance of free DCA” value ([8]; 500 μg/mL in 18% rat serum) was “delayed relative to the disappearance of the ester” and the “hydrolysis in serum compared with MitoDCA” value ([8]; 500 μg/mL in 18% rat serum) was “slower than MitoDCA”.
